Measurements reported in US9732094B2, “Arylquinazolines” (Merck Patent GmbH, priority 2013, dated 2017).
Like-named read-outs stand apart in the source and are kept apart here.

Assays:
DNA-PK = DNA-PK (Homo sapiens (Human), UniProt P78527); assay: DNA-PK assay (biochemical), flashplate 33P-ATP kinase assay; conditions: biochemical DNA-PK assay
Outline: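 Reactions ran in streptavidin-coated flashplates and were halted by 200 mM EDTA, with a further 30 min at room temperature before saline washing.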

[1] = biological target: DNA-PK phosphorylation at serine 2056 (Homo sapiens (Human), UniProt P78527); assay: DNA-PK phosphorylation at serine 2056 (cellular), bleomycin-treated HCT116 cells, ELISA; assay type: cell-based; conditions: cellular DNA-PK phosphorylation at serine 2056, HCT116; read-out: IC50 pDNA-PK
Outline: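 HCT116 cells were treated with 10 μM bleomycin plus test compounds for six hours at 37 °C. Phospho-Ser2056 DNA-PK measured by chemiluminescent ELISA, normalised to total DNA-PKcs signal; DMSO control as blank.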

Kv11.1 (hERG) = Kv11.1 (hERG) (Homo sapiens (Human), UniProt Q12809); assay: Kv11.1 (hERG) ion channel activity (patch clamp assay), HEK293 cells transfected with hERG gene; conditions: hERG patch clamp assay (cells without asterisk)
Kv11.1 (hERG), sequence (Q12809 whole entry): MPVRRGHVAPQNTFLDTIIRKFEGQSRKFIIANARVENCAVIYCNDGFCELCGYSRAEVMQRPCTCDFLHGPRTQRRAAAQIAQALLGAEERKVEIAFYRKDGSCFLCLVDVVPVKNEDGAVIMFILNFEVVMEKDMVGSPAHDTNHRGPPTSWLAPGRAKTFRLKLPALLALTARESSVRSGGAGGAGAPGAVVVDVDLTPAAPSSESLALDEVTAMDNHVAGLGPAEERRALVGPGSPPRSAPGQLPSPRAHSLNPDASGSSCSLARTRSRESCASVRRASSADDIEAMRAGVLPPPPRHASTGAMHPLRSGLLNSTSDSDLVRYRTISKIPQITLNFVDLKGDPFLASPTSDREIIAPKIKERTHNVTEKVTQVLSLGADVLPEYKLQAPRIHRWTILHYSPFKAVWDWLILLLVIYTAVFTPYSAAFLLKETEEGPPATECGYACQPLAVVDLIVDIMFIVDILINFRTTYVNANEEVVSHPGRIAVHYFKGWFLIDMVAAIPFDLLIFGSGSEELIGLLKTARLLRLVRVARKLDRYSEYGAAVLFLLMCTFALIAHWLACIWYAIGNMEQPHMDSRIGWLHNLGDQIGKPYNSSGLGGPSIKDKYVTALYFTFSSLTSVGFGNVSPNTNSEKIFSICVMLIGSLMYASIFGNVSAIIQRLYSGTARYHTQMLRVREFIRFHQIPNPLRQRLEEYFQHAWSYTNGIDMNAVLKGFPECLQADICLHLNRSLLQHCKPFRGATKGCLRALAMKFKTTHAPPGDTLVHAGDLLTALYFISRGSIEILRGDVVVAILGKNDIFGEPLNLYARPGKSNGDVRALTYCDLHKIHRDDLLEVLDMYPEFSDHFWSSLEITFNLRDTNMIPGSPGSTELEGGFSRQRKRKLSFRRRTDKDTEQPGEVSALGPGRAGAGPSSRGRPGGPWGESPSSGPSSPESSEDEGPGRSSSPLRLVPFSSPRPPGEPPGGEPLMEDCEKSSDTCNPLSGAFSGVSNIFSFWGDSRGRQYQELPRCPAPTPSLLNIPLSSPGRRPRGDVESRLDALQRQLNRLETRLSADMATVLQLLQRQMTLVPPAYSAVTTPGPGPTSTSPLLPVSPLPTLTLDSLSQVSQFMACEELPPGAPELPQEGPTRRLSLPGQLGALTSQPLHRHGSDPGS

| SMILES | IC50 (DNA-PK) | IC50 [1] | Ki (Kv11.1 (hERG); read-out: Ki [Kv1.11 hERG]) | Ki (Kv11.1 (hERG); Ki [Kv1.11 hERG]) |
| --- | --- | --- | --- | --- |
| Cn1cnc2c(C(O)c3cc(-c4ncnc5cc(N6CCOCC6)ccc45)c(F)cc3F)ncnc21 (stereo not drawn) [Example 421, [2.4-Difluoro-5-(7-morpholin-4-yl-quinazolin-4-yl)-phenyl]-(9-methyl-9H-purin-6-yl)-methanol] | 7 to 30 nM | 500 to 5000 nM | > 25000 nM |  |
| COc1nccnc1C(O)c1cc(-c2ncnc3cc(N4CCOCC4)ccc23)ccc1Cl (stereo not drawn) [Example 422, [2-Chloro-5-(7-morpholin-4-yl-quinazolin-4-yl)-phenyl]-(3-methoxy-pyrazin-2-yl)-methanol] | 3 to 7 nM | 500 to 5000 nM | 10000 to 15000 nM |  |
| Cn1cnc2ncnc(C(O)c3cc(-c4ncnc5cc(N6CCOCC6)ccc45)c(F)cc3Cl)c21 (stereo not drawn) [Example 423, [2-Chloro-4-fluoro-5-(7-morpholin-4-yl-quinazolin-4-yl)-phenyl]-(7-methyl-7H-purin-6-yl)-methanol] | 7 to 30 nM | 5000 to 10000 nM | > 25000 nM |  |
| CN1CCN(c2nccnc2C(O)c2ccc(F)c(-c3ncnc4cc(N5CCOCC5)ccc34)c2)C1=O (stereo not drawn) [Example 424, 1-(3-{[4-Fluoro-3-(7-morpholin-4-yl-quinazolin-4-yl)-phenyl]hydroxy-methyl}pyrazin-2-yl)-3-methyl-imidazolidin-2-one] | > 30 nM | 10000 to 30000 nM | > 25000 nM |  |
| O=C1CCCN1c1nccnc1C(O)c1ccc(F)c(-c2ncnc3cc(N4CCOCC4)ccc23)c1 (stereo not drawn) [Example 425, 1-(3-{[4-Fluoro-3-(7-morpholin-4-yl-quinazolin-4-yl)-phenyl]hydroxy-methyl}pyrazin-2-yl)-pyrrolidin-2-one] | > 30 nM | 10000 to 30000 nM | > 25000 nM |  |
| Cc1nccnc1C(O)c1cc(-c2ncnc3cc(N4CCOCC4)ccc23)ccc1Cl (stereo not drawn) [Example 426, [2-Chloro-5-(7-morpholin-4-yl-quinazolin-4-yl)-phenyl]-(3-methyl-pyrazin-2-yl)-methanol] | 7 to 30 nM | 500 to 5000 nM | > 25000 nM |  |
| Cc1nccnc1C(O)c1cc(-c2ncnc3cc(N4CCOCC4)ccc23)ccc1Cl (stereo not drawn) [Example 427, [2-Chloro-5-(7-morpholin-4-yl-quinazolin-4-yl)-phenyl]-(3-methyl-pyrazin-2-yl)-methanol] | 7 to 30 nM | 500 to 5000 nM |  | 15000 to 25000 nM |
| Cc1nccnc1C(O)c1cc(-c2ncnc3cc(N4CCOCC4)ccc23)ccc1Cl (stereo not drawn) [Example 428, [2-Chloro-5-(7-morpholin-4-yl-quinazolin-4-yl)-phenyl]-(3-methyl-pyrazin-2-yl)-methanol] | 7 to 30 nM | < 500 nM |  | 10000 to 15000 nM |
| OC(c1cc(-c2ncnc3cc(N4CCOCC4)ccc23)c(F)cc1Cl)c1ncnc2sccc12 (stereo not drawn) [Example 429, [2-Chloro-4-fluoro-5-(7-morpholin-4-yl-quinazolin-4-yl)-phenyl]thieno[2,3-d}-pyrimidin-4-yl-methanol] | < 3 nM | < 500 nM | < 10000 nM |  |
| OC(c1cc(-c2ncnc3cc(N4CCOCC4)ccc23)ccc1Cl)c1ncnc2sccc12 (stereo not drawn) [Example 430, [2-Chloro-5-(7-morpholin-4-yl-quinazolin-4-yl)-phenyl]thieno[2,3-d}-pyrimidin-4-yl-methanol] | 3 to 7 nM | < 500 nM | > 25000 nM |  |
| OC(c1cc(-c2ncnc3cc(N4CCOCC4)ccc23)ccc1Cl)c1ncnc2ccoc12 (stereo not drawn) [Example 432, [2-Chloro-5-(7-morpholin-4-yl-quinazolin-4-yl)-phenyl]furo[3,2-d}-pyrimidin-4-yl-methanol] | 7 to 30 nM | 500 to 5000 nM | 10000 to 15000 nM |  |
| Cn1cnc2ncnc(C(O)c3ccc(F)c(-c4ncnc5cc(N6CCOCC6)ccc45)c3)c21 (stereo not drawn) [Example 433, [4-Fluoro-3-(7-morpholin-4-yl-quinazolin-4-yl)-phenyl]-(7-methyl-7H-purin-6-yl)-methanol] | 7 to 30 nM | 500 to 5000 nM | > 25000 nM |  |
| OC(c1ccc(F)c(-c2ncnc3cc(N4CCOCC4)ccc23)c1)c1ncnc2occc12 (stereo not drawn) [Example 434, [4-Fluoro-3-(7-morpholin-4-yl-quinazolin-4-yl)-phenyl]furo[2,3-d}-pyrimidin-4-yl-methanol] | < 3 nM | < 500 nM | > 25000 nM |  |
| Cn1c(C(O)c2cc(-c3ncnc4cc(N5CCOCC5)ccc34)c(F)cc2Cl)cccc1=O (stereo not drawn) [Example 435, 6-{[2-Chloro-4-fluoro-5-(7-morpholin-4-yl-quinazolin-4-yl)-phenyl]hydroxy-methyl}-l-methyl-1H-pyridin-2-one] | 3 to 7 nM | < 500 nM | > 25000 nM |  |
| Cn1c(C(O)c2cc(-c3ncnc4cc(N5CCOCC5)ccc34)c(F)cc2F)cccc1=O (stereo not drawn) [Example 436, 6-{[2,4-Difluoro-5-(7-morpholin-4-yl-quinazolin-4-yl)-phenyl]hydroxy-methyl}-1-methyl-1H-pyridin-2-one] | 3 to 7 nM | 500 to 5000 nM | > 25000 nM |  |
| OC(c1ccc(F)c(-c2ncnc3cc(N4CCOCC4)ccc23)c1)c1ncnc2sccc12 (stereo not drawn) [Example 437, [4-Fluoro-3-(7-morpholin-4-yl-quinazolin-4-yl)-phenyl]thieno[2,3-d}-pyrimidin-4-yl-methanol] | < 3 nM | < 500 nM |  | 10000 to 15000 nM |
| OC(c1ccc(F)c(-c2ncnc3cc(N4CCOCC4)ccc23)c1)c1ncnc2ccsc12 (stereo not drawn) [Example 438, [4-Fluoro-3-(7-morpholin-4-yl-quinazolin-4-yl)-phenyl]thieno[3,2-d}-pyrimidin-4-yl-methanol] | < 3 nM | < 500 nM |  | 10000 to 15000 nM |
| OC(c1cc(-c2ncnc3cc(N4CCOCC4)ccc23)c(F)cc1F)c1ncnc2ccsc12 (stereo not drawn) [Example 439, [2,4-Difluoro-5-(7-morpholin-4-yl-quinazolin-4-yl)-phenyl]thieno[3,2-d}-pyrimidin-4-yl-methanol] | < 3 nM | < 500 nM |  | 10000 to 15000 nM |
| OC(c1cc(-c2ncnc3cc(N4CCOCC4)ccc23)c(F)cc1Cl)c1ncnc2ccoc12 (stereo not drawn) [Example 440, [2-Chloro-4-fluoro-5-(7-morpholin-4-yl-quinazolin-4-yl)-phenyl]furo[3,2-d}-pyrimidin-4-yl-methanol] | < 3 nM | < 500 nM |  | 15000 to 25000 nM |
| OC(c1cc(-c2ncnc3cc(N4CCOCC4)ccc23)c(F)cc1Cl)c1ncnc2ccoc12 (stereo not drawn) [Example 441, [2-Chloro-4-fluoro-5-(7-morpholin-4-yl-quinazolin-4-yl)-phenyl]furo[3,2-d}-pyrimidin-4-yl-methanol] | < 3 nM | < 500 nM |  | 10000 to 15000 nM |
| OC(c1ccc(F)c(-c2ncnc3cc(N4CCOCC4)ccc23)c1)c1ncnc2ccoc12 (stereo not drawn) [Example 442, [4-Fluoro-3-(7-morpholin-4-yl-quinazolin-4-yl)-phenyl]furo[3,2-d}-pyrimidin-4-yl-methanol] | < 3 nM | < 500 nM | > 25000 nM |  |
| OC(c1cc(-c2ncnc3cc(N4CCOCC4)ccc23)c(F)cc1F)c1ncnc2ccoc12 (stereo not drawn) [Example 444, [2,4-Difluoro-5-(7-morpholin-4-yl-quinazolin-4-yl)-phenyl]furo[3,2-d}-pyrimidin-4-yl-methanol] | < 3 nM | 500 to 5000 nM | > 25000 nM |  |
| COc1cncnc1C(O)c1cc(-c2ncnc3cc(N4CCOCC4)ccc23)c(F)cc1Cl (stereo not drawn) [Example 447, [2-Chloro-4-fluoro-5-(7-morpholin-4-yl-quinazolin-4-yl)-phenyl]-(5-methoxy-pyrimidin-4-yl)-methanol] | < 3 nM | 500 to 5000 nM |  | 10000 to 15000 nM |
| COc1cncnc1C(O)c1cc(-c2ncnc3cc(N4CCOCC4)ccc23)c(F)cc1F (stereo not drawn) [Example 448, [2,4-Difluoro-5-(7-morpholin-4-yl-quinazolin-4-yl)-phenyl]-(5-methoxy-pyrimidin-4-yl)-methanol] | < 3 nM | 500 to 5000 nM |  | 10000 to 15000 nM |
| OC(c1cc(-c2ncnc3cc(N4CCOCC4)ccc23)c(F)cc1F)c1nccnc1OC(F)F (stereo not drawn) [Example 449, (3-Difluoromethoxy-pyrazin-2-yl)-[2,4-difluoro-5-(7-morpholin-4-yl-quinazolin-4-yl)-phenyl]methanol] | < 3 nM | 500 to 5000 nM | > 25000 nM |  |
| OC(c1cc(-c2ncnc3cc(N4CCOCC4)ccc23)c(F)cc1F)c1nccnc1OC(F)F (stereo not drawn) [Example 450, (3-Difluoromethoxy-pyrazin-2-yl)-[2,4-difluoro-5-(7-morpholin-4-yl-quinazolin-4-yl)-phenyl]methanol] | 7 to 30 nM | 5000 to 10000 nM |  | 15000 to 25000 nM |
| OC(c1cc(-c2ncnc3cc(N4CCOCC4)ccc23)c(F)cc1F)c1nccnc1OC(F)F (stereo not drawn) [Example 451, (3-Difluoromethoxy-pyrazin-2-yl)-[2,4-difluoro-5-(7-morpholin-4-yl-quinazolin-4-yl)-phenyl]methanol] | 3 to 7 nM | 500 to 5000 nM | 15000 to 25000 nM |  |
| OC(c1cc(-c2ncnc3cc(N4CCOCC4)ccc23)c(F)cc1Cl)c1ncnc2ccoc12 (stereo not drawn) [Example 452, [2-Chloro-4-fluoro-5-(7-morpholin-4-yl-quinazolin-4-yl)-phenyl]furo[3,2-d}-pyrimidin-4-yl-methanol] | < 3 nM | < 500 nM |  | 10000 to 15000 nM |
| COc1nccnc1C(O)c1cc(-c2ncnc3cc(N4CCOCC4)ccc23)c(F)cc1F (stereo not drawn) [Example 453, [2,4-Difluoro-5-(7-morpholin-4-yl-quinazolin-4-yl)-phenyl]-(3-methoxy-pyrazin-2-yl)-methanol] | 3 to 7 nM | < 500 nM |  | 10000 to 15000 nM |
